In assay [1] the target is T1, Alpha-1A adrenergic receptor (Homo sapiens, UniProt P35348).
T1 sequence (P35348 whole entry): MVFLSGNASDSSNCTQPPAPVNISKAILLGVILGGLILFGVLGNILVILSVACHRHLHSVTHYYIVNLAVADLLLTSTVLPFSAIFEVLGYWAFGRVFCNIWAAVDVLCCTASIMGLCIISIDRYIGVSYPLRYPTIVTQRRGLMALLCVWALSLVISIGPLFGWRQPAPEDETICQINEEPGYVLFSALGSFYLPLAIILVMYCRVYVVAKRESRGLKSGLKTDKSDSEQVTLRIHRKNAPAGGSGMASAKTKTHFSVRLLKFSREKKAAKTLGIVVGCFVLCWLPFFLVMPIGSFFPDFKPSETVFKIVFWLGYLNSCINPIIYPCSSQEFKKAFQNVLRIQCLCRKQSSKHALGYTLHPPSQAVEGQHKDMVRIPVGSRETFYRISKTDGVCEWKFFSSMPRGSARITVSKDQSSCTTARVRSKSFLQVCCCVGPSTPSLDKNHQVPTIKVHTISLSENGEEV
Description: Displacement [3H]prazosin of human recombinant alpha1A adrenergic receptor expressed in CHO cells by rapid filtration technique

The species named for assay [2] is Rattus norvegicus. As to the kind of experiment: Selectivity for adrenergic alpha1A receptor in Wistar rat prostatic vas deferens over adrenergic Alpha-1D receptor in Wistar rat thoracic aorta. Type of assay: tissue-based.
Assay [3] concerns the target T2, 5-hydroxytryptamine receptor 1A (Homo sapiens, UniProt P08908).
T2 sequence (P08908 whole entry): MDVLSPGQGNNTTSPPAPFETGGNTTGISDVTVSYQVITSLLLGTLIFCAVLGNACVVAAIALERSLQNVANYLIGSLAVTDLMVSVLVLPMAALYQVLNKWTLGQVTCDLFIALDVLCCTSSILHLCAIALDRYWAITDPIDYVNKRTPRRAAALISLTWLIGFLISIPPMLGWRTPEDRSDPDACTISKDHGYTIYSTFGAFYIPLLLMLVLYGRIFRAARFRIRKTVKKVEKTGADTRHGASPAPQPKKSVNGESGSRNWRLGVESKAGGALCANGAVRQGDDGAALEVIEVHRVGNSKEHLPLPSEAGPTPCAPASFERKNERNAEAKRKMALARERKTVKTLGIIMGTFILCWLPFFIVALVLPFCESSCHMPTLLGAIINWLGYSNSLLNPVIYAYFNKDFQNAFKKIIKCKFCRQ

Assay [4] concerns the target T3, Alpha-1B adrenergic receptor (Rattus norvegicus) (UniProt P15823).
T3 sequence (whole entry): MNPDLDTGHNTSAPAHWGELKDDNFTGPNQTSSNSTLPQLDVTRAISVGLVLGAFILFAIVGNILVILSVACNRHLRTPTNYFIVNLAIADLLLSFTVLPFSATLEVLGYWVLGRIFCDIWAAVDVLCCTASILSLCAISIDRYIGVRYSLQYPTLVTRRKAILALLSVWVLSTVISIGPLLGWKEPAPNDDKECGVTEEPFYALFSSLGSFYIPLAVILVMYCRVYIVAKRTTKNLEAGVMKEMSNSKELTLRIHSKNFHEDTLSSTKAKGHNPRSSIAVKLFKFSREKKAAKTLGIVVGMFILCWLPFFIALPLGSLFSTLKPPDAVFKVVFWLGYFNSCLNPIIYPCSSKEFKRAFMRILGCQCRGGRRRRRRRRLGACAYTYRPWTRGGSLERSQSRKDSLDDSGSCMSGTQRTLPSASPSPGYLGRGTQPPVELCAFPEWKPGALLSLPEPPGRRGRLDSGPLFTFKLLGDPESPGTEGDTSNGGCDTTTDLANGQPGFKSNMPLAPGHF
In words: Antagonist activity at adrenergic Alpha-1B receptor in Wistar rat spleen assessed as inhibition of […]-induced tissue contraction treated 30 mins before […] challenge. Type of assay: functional, tissue-based.

The target of assay [5] is T4, Alpha-1D adrenergic receptor (Homo sapiens, UniProt P25100).
T4 sequence (P25100 whole entry): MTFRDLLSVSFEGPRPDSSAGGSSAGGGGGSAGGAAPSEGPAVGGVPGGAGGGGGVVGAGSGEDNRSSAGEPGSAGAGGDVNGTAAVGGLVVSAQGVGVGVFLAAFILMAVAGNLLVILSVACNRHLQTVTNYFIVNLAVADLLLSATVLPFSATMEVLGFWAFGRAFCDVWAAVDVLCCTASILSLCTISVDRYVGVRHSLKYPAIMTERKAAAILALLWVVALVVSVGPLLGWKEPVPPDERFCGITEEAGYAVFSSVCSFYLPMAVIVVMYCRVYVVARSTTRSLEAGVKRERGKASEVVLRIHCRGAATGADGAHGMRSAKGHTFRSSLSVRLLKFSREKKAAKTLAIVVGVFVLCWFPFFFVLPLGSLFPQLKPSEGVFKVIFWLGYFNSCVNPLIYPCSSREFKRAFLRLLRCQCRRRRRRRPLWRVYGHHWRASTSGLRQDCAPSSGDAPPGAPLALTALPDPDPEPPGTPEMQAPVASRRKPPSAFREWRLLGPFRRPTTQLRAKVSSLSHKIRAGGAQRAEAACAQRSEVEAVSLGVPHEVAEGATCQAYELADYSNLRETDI
Description: Displacement [3H]prazosin of human recombinant Alpha-1D adrenergic receptor expressed in CHO cells by rapid filtration technique

Assay [6] concerns the target T5, Alpha-1B adrenergic receptor (Homo sapiens, UniProt P35368).
T5 sequence (P35368 whole entry): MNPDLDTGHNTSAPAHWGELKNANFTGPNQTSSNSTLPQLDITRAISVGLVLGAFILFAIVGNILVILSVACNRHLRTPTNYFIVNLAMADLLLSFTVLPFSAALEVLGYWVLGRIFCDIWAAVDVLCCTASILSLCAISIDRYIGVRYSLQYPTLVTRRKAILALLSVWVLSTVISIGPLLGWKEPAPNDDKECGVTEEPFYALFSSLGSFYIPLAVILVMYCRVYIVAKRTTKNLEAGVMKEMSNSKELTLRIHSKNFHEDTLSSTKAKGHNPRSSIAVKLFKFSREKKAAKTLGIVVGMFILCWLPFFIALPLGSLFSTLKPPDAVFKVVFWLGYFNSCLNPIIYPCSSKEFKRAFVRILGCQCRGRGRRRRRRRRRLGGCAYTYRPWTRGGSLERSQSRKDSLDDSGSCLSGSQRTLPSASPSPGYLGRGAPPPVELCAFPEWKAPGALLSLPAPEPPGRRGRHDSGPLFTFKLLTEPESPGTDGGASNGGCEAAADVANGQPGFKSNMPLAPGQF
Description: Displacement [3H]prazosin of human recombinant Alpha-1B adrenergic receptor expressed in CHO cells by rapid filtration technique

For assay [7], the species on record is Rattus norvegicus. As to the kind of experiment: Selectivity for adrenergic Alpha-1B receptor in Wistar rat spleen over adrenergic alpha1A receptor in Wistar rat prostatic vas deferens. Type of assay: tissue-based.

On to `COc1ccccc1N1CCN(C[C@H]2CO[C@@](CN3C(=O)CC4(CCCC4)CC3=O)(c3ccccc3)O2)CC1` (relative stereo), for which the Ki in assay [1] is 2.04 nM; in assay [3], 2.63 nM; in assay [5], 4.79 nM; in assay [6] it was 9.33 nM. For the same compound, the Selectivity ratio in the assay listed under Rattus norvegicus [2] came to 0.1; in the assay listed under Rattus norvegicus [7], 3. Moreover, the pKb in assay [4] was 7.4.

For `COc1ccccc1N1CCN(C[C@H]2CO[C@@](CN3C(=O)CCC3=O)(c3ccccc3)O2)CC1` (relative stereo), the Ki in assay [1] was 2.88 nM; in assay [3], 5.13 nM; in assay [5], 39.8 nM; in assay [6] it was 85.1 nM. The results for the Selectivity ratio in the assay listed under Rattus norvegicus [2] and in the assay listed under Rattus norvegicus [7] were 0.1 and 3, respectively. Moreover, in assay [4], the pKb turned out to be 7.04.

As to `COc1ccccc1N1CCN(C[C@H]2CO[C@@](CN3C(=O)CCCC3=O)(c3ccccc3)O2)CC1` (relative stereo), the Ki in assay [1] was 6.61 nM; in assay [3], 3.16 nM; in assay [5] it was 32.4 nM; in assay [6], 46.8 nM. Also, the Selectivity ratio worked out at 0.1 in the assay listed under Rattus norvegicus [2] and 1 in the assay listed under Rattus norvegicus [7]. Further, the pKb in assay [4] came to 7.12.

For `COc1ccccc1N1CCN(C[C@H]2CO[C@](CN3CCCC3=O)(c3ccccc3)O2)CC1` (relative stereo), the Ki in assay [1] was 1.38 nM; in assay [3], 6.92 nM; in assay [5], 13.5 nM; in assay [6], 174 nM. The Selectivity ratio worked out at 0.07 in the assay listed under Rattus norvegicus [2] and 0.5 in the assay filed under Rattus norvegicus [7]. In addition, in assay [4], the pKb was 8.29.

As to `COc1ccccc1N1CCN(C[C@@H]2CO[C@@](CN3C(=O)CCCC3=O)(c3ccccc3)O2)CC1` (relative stereo), the Ki is 21.4 nM in assay [1], 44.7 nM in assay [3], 8.51 nM in assay [5] and 132 nM in assay [6]. Further, the Selectivity ratio in the assay listed under Rattus norvegicus [2] was determined as 2; in the assay listed under Rattus norvegicus [7], 1. Further, the pKb in assay [4] came to 7.35.

Consider `COc1ccccc1N1CCN(C[C@@H]2CO[C@](CN3CCCC3=O)(c3ccccc3)O2)CC1` (relative stereo), for which the Ki in assay [1] is 12.6 nM; in assay [3] it was 11.2 nM; in assay [5], 5.25 nM; in assay [6], 70.8 nM. Further, the Selectivity ratio in the assay listed under Rattus norvegicus [2] was found to be 1; in the assay filed under Rattus norvegicus [7], 0.2. Besides, the pKb in assay [4] came out at 8.17.

As for `COc1ccccc1N1CCN(CC2OCC(c3ccccc3)(c3ccccc3)O2)CC1` (stereo unspecified), the Ki is 0.263 nM in assay [1], 22.9 nM in assay [3], 0.813 nM in assay [5] and 6.76 nM in assay [6]. The Selectivity ratio in the assay listed under Rattus norvegicus [2] turned out to be 0.8; in the assay listed under Rattus norvegicus [7], 36. In assay [4], the pKb was 6.69.

Consider `COc1ccccc1N1CCN(C[C@@H]2CO[C@@](CN3C(=O)CCC3=O)(c3ccccc3)O2)CC1` (relative stereo), for which the Ki in assay [1] was 40.7 nM; in assay [3] it was 25.7 nM; in assay [5], 16.2 nM; in assay [6], 224 nM. Further, the Selectivity ratio in the assay filed under Rattus norvegicus [2] stood at 3; in the assay filed under Rattus norvegicus [7] it was 2. In assay [4], the pKb was determined as 7.11.

For `COc1ccccc1N1CCN(C[C@H]2CO[C@@](CN3CCCCC3=O)(c3ccccc3)O2)CC1`, the Ki in assay [1] is 0.871 nM; in assay [3] it was 5.25 nM; in assay [5], 14.1 nM; in assay [6], 129 nM. In addition, the Selectivity ratio in the assay filed under Rattus norvegicus [2] and in the assay listed under Rattus norvegicus [7] was 0.3 in each case. The pKb in assay [4] worked out at 7.93.

Regarding `COc1ccccc1N1CCN(C[C@@H]2CO[C@@](CN3CCCCC3=O)(c3ccccc3)O2)CC1` (relative stereo), the Ki in assay [1] was 11.5 nM; in assay [3] it was 5.13 nM; in assay [5], 1.48 nM; in assay [6], 51.3 nM. In addition, the Selectivity ratio in the assay filed under Rattus norvegicus [2] is 1; in the assay filed under Rattus norvegicus [7], 0.1. Moreover, the pKb in assay [4] was determined as 8.3.

`COc1ccccc1N1CCN(C[C@@H]2CO[C@@](CN3CCCCCC3=O)(c3ccccc3)O2)CC1` (relative stereo): the Ki in assay [1] is 26.9 nM; in assay [3] it was 7.24 nM; in assay [5] it was 2.51 nM; in assay [6], 18.2 nM. Also, the Selectivity ratio came out at 4 in the assay listed under Rattus norvegicus [2] and 0.1 in the assay listed under Rattus norvegicus [7]. For the same compound, the pKb in assay [4] came out at 8.08.

For `COc1ccccc1N1CCN(C[C@H]2CO[C@@](CN3CCCCCC3=O)(c3ccccc3)O2)CC1` (relative stereo), the Ki was 0.631 nM in assay [1], 5.62 nM in assay [3], 4.07 nM in assay [5] and 72.4 nM in assay [6]. Further, the Selectivity ratio turned out to be 0.04 in the assay filed under Rattus norvegicus [2] and 4 in the assay filed under Rattus norvegicus [7]. Moreover, the pKb in assay [4] came to 8.42.

For `COc1ccccc1N1CCN(C[C@@H]2CO[C@@](CN3C(=O)CC4(CCCC4)CC3=O)(c3ccccc3)O2)CC1` (relative stereo), the inhibition constant (Ki) in assay [1] is 10 nM; in assay [3], 1.26 nM; in assay [5] it was 1.38 nM; in assay [6] it was 10 nM. The Selectivity ratio was 17 in the assay listed under Rattus norvegicus [2] and 0.7 in the assay listed under Rattus norvegicus [7]. For the same compound, the pKb in assay [4] is 7.47.

Usually Ki stands for a dissociation constant, usually derived from enzyme kinetics or from competition with a known ligand. A lower Ki goes with higher affinity. For orientation: pKb means −log10 of the Kb, conventionally taken in molar units.
